Columns and labels:
[1] = Dissolution test of Drug 2 dispersions (as in Example 1, with exceptions); assay type: physicochemical; conditions: 2000 μg/mL if all of the drug had dissolved, PBS pH 6.5, 37° C.
Experimental: For this test, samples containing 7.2 mg of the Example 1 dispersion were added to microcentrifuge tubes, in duplicate. The tubes were placed in a 37° C. temperature-controlled chamber, and 1.8 mL PBS at pH 6.5 and having an osmotic pressure of 290 mOsm/kg was added. The samples were mixed using a vortex mixer for about 60 seconds. The samples were centrifuged at 13,000 G at 37° C. for 1 minute. The resulting supernatant solutions were then sampled and diluted 1:6 by volume with methanol and then analyzed by high-performance liquid chromatography (HPLC) at a UV absorbance of 256 nm using a Waters Symmetry C8 column and a mobile phase consisting of 15% (0.2% H3PO4)/85% methanol. The contents of the tubes were mixed on the vortex mixer and allowed to stand undisturbed at 37° C. until the next sample was taken. […]
The solubility and physical properties of the dispersions of Example 4 and Control C2 were determined as in Example 1 with the following exceptions. For measurement of concentration enhancement, sufficient quantities of the dispersion were added to the microcentrifuge tubes such that the concentration if all of the drug had dissolved would be 2000 μg/mL. Samples were analyzed by HPLC, with absorbance at 297 nm (Hewlett Packard 1100 HPLC, Zorbax SB C18 column, 35% acetonitrile/65% H2O). The same properties of a control of crystalline Drug 2 (CD2) alone were also determined.

[2] = Dissolution test of Drug 1 dispersions in PBS (concentration enhancement); assay type: physicochemical; conditions: PBS pH 6.5, 37° C.
Experimental: For this test, samples containing 7.2 mg of the Example 1 dispersion were added to microcentrifuge tubes, in duplicate. The tubes were placed in a 37° C. temperature-controlled chamber, and 1.8 mL PBS at pH 6.5 and having an osmotic pressure of 290 mOsm/kg was added. The samples were mixed using a vortex mixer for about 60 seconds. The samples were centrifuged at 13,000 G at 37° C. for 1 minute. The resulting supernatant solutions were then sampled and diluted 1:6 by volume with methanol and then analyzed by high-performance liquid chromatography (HPLC) at a UV absorbance of 256 nm using a Waters Symmetry C8 column and a mobile phase consisting of 15% (0.2% H3PO4)/85% methanol. The contents of the tubes were mixed on the vortex mixer and allowed to stand undisturbed at 37° C. until the next sample was taken. […] Control 1 and crystalline Drug 1 alone were tested using the same procedure.
The concentrations of drug obtained in these samples were used to determine the value of the maximum concentration of drug in the first ninety minutes (Cmax90) and the area under the curve of drug concentration versus time in the first ninety minutes (AUC90).

Row | AUC90 [1] | Cmax90 [1] [µg/mL] | AUC90 ([2]; Drug 1, area under the curve of drug concentration versus time in the first ninety minutes) [µg·min/mL] | Cmax90 ([2]; Drug 1, maximum concentration of drug in the first ninety minutes) [µg/mL] | Drug 1 Concentration ([2]; 7.2 mg dispersion in 1.8 mL, time 0 min) [µg/mL] | AUC ([2]; elapsed time 0 min) [µg·min/mL] | AUC ([2]; elapsed time 4 min) [µg·min/mL] | AUC ([2]; elapsed time 10 min) [µg·min/mL] | AUC ([2]; elapsed time 20 min) [µg·min/mL] | AUC ([2]; elapsed time 40 min) [µg·min/mL] | AUC ([2]; elapsed time 90 min) [µg·min/mL] | AUC ([2]; elapsed time 1200 min) | Drug 1 Concentration ([2]; time 4 min) [µg/mL] | Drug 1 Concentration ([2]; time 10 min) [µg/mL] | Drug 1 Concentration ([2]; time 20 min) [µg/mL] | Drug 1 Concentration ([2]; time 40 min) [µg/mL] | Drug 1 Concentration ([2]; time 90 min) [µg/mL] | Drug 1 Concentration ([2]; time 1200 min) [µg/mL] | SMILES
1 | 12,800 min · μg/mL | 149 |  |  |  |  |  |  |  |  |  |  |  |  |  |  |  |  | O=C(N[C@@H](Cc1ccccc1)[C@@H](O)C(=O)N1C[C@@H](O)[C@@H](O)C1)c1cc2cc(Cl)ccc2[nH]1 [CD2, 5-chloro-1H-indole-2-carboxylic acid [(1S)-benzyl-3-((3R,4S)-dihydroxypyrroldin-1-yl-)-(2R)-hydroxy-3-oxypropyl]amide]
2 |  |  | <88 | <1 | 0 | 0 | <2 | <8 | <18 | <38 | <88 | <1,200 min · μg/mL | <1 | <1 | <1 | <1 | <1 | <1 | CCOC(=O)N1c2ccc(C(F)(F)F)cc2C(N(Cc2cc(C(F)(F)F)cc(C(F)(F)F)c2)C(=O)OC)CC1CC (stereo not drawn) [Crystalline Drug 1, 4-[(3,5-bis-trifluoromethyl-benzyl)-methoxycarbonyl-amino]-2-ethyl-6-trifluoromethyl-3,4-dihydro-2H-quinoline-1-carboxylic acid ethyl ester]
